# Structures can show the parent of a compound that is named as a salt.
# Key:
# [1] = target: T1, MMP-1 (interstitial collagenase) (Homo sapiens, UniProt P03956); test: Determination of inhibition constant (Ki) for MMP-1, fluorogenic substrate; type: biochemical; settings: pH 7.6
# T1 construct: The active MMP-1 was obtained by treatment of proMMP-1 with trypsin; endogenous in cells; host or cells: human rheumatoid synovial fibroblasts stimulated with macrophage-conditioned medium; secreted proenzyme purified from culture medium
# T1 sequence (P03956 100-469): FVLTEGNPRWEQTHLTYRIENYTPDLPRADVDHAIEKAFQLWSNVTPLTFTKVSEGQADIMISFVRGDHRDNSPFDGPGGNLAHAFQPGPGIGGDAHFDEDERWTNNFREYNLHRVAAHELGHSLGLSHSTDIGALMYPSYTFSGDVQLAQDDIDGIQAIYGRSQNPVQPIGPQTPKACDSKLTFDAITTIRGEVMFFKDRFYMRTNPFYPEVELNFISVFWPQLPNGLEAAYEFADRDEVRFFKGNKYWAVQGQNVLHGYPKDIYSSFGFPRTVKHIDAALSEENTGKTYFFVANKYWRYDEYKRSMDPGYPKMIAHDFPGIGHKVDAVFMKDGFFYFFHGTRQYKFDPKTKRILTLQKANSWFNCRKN
# Protocol: ProMMP-1 (EC3.4.24.7; interstitial collagenase) was purified from culture medium of human rheumatoid synovial fibroblasts stimulated with macrophage-conditioned medium according to Okada, Y. et al., J. Biol. Chem. 261, 14245-14255 (1986). The active MMP-1 was obtained by treatment of proMMP-1 with trypsin (5 μg/mL) at 37° C. for 30 minutes, followed by addition of soybean trypsin inhibitor (50 μg/mL).
# The activated MMP-1 is assayed using a fluorogenic substrate, Mca-Pro-Leu-Gly-Leu-Dpa-Ala-Arg-NH2, Knight, C. G. et al., FEBS Lett. 296, 263-266 (1992), at 37° C. in 2.0 mL of assay buffer containing 50 mM Tris, pH 7.6, 0.2 M sodium chloride, 50 mM calcium chloride, and 0.02% Brij-35. The increase in fluorescence due to cleavage of Gly-Leu peptide bond by MMP-3 was monitored with Perkin-Elmer LS50B Fluorimeter (λex 328 nm, λem 393 nm, excitation slit 2.5, emission slit 10). Substrate and inhibitor stock solutions were made in DMF. For determination of Ki values for MMP-1 inhibitors, a series of intermediate inhibitor solutions were prepared in DMF and 1 or 2 μL of the diluted inhibitor solution was mixed with 1 μL of 2 mM substrate solution in DMF in a quartz cuvette containing 2 mL of assay buffer. The enzyme (10 μL of 0.2 μM […] dilution in assay buffer) was added at the last to start the reaction. For routine measurement of a Ki value for a reversible, competitive inhibitor, the initial rates in the presence of at least four inhibitor concentrations (two concentrations above Ki and two concentrations below Ki) were measured using [S]=1 μM (<<Km) and [MMP-1]=0.8 nM. Under these conditions, the measured Ki, app is close to true Ki.
# (§1) The Ki for a competitive inhibitor is calculated using: v0/vi=(1+[I]/Ki, app) and Ki=Ki, app/(1+[S]/Km), where v0 is the initial rate in the absence of inhibitor, vi is the initial rate in the presence of inhibitor at the concentration of [I], [S] is the substrate concentration, and Km is the Michaelis constant. If slow binding is observed (i.e. if the approach to the binding equilibrium is slow), the final steady-state rate rather than the initial rate is taken as vi.
# [2] = target: T2, MMP-12 (macrophage metalloelastase) (Homo sapiens, UniProt P39900); test: Determination of the inhibition constant (Ki) for MMP-12, fluorogenic substrate; type: biochemical; settings: pH 7.6
# T2 construct: made in house
# T2 sequence (P39900 106-263 limits assumed): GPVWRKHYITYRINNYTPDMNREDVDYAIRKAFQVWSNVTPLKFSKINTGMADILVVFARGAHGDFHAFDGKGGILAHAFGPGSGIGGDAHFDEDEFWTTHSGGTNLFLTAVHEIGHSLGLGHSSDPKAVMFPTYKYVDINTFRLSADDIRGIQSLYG
# Protocol: MMP-12 (EC3.4.24.65) was cloned, expressed and purified according to Shapiro, S. D. et al., J Biol. Chem. 268, 23824-23829 (1993). […] Aliquots of MMP-12 were stored at −70° C.
# The potency of inhibitors of MMP-12 was measured using either quartz cuvettes or microtiter plates. The activity of MMP-12 was measured using a fluorogenic substrate, Mca-Pro-Leu-Gly-Leu-Dpa-Ala-Arg-NH2 SEQ ID NO1, Knight, C. G. et al., FEBS Lett. 296,263-266 (1992), at 25° C. in an assay buffer containing 50 mM Tris, pH 7.6, 0.2 M sodium chloride, 50 mM calcium chloride, and 0.02% Brij-35. The increase in fluorescence due to cleavage of Gly-Leu peptide bond by MMP-12 was monitored with a Perkin-Elmer LS50B Fluorimeter (λex 328 nm, λem 393 nm, excitation slit 2.5, emission slit 10) for the cuvette assay and with a Molecular Devices Fmax fluorescence plate reader (λex 320 nm, λem 405 nm) for the microtiter plate assay. Substrate and inhibitor stock solutions were made in N,N-dimethylformamide (DMF) and 0.1% HCl-DMF, respectively.
# Ki values were determined using the cuvette method by preparing a series of intermediate inhibitors solutions in 0.1% HCl-DMF and mixing the inhibitor with substrate (final concentration 2 μM) in a quartz cuvette containing 2 ml of assay buffer. MMP-12 was added to start the reaction at a concentration of 2 nM and progress curves were generated. For routine measurement of a Ki value for a reversible competitive inhibitor, the initial rates in the presence of at least four inhibitor concentrations (two concentrations above and two concentrations below the Ki) were measured [S]=2 μM (<<Km) and [MMP-12]=2 nM. Under these conditions, the measured Ki,app is close to the true Ki.
# Ki values were determined using the microtiter plate method in a manner similar to that described for the cuvette method with some modifications. Four different inhibitor concentrations (50 μl in assay buffer) of each compound were added to separate wells of a microtiter plate and substrate was added (100 μl) to get a final concentration of […]. MMP-12 was added to a final concentration of 2 nM (50 μl) to start the reaction. Cleavage of substrate was recorded every 30 seconds for 30 minutes and progress curves were generated.
# as §1, with “inhibitor was” for “inhibitor is”, “using: V0/Vi=(1+[I]/Ki,app)” for “using: v0/vi=(1+[I]/Ki, app)”, “and Ki=Ki,app/(1+[S]/Km),” for “and Ki=Ki, app/(1+[S]/Km),”, “where V0” for “where v0”, “inhibitor, Vi” for “inhibitor, vi”, “as Vi.” for “as vi.”
# [3] = Table 1, Mca-Pro-Leu-Gly-Leu-Dpa-Ala-Arg-NH2, 37° C.
# [4] = Table 1, Mca-Pro-Leu-Gly-Leu-Dpa-Ala-Arg-NH2, 25° C.
"Ki [1, 3] [µM]","Ki [2, 4] [µM]","Ki ([1]; Table 2 (comparative), method of Example A, 37° C.) [µM]","Ki ([2]; Table 2 (comparative), method of Example D, 25° C.) [µM]",SMILES
0.518,0.014,,,"CC(C)C[C@H](NC(=O)[C@@H](S)C(C)C)C(=O)N[C@@H](Cc1ccccc1)C(=O)O [Example 3, (S)-2-Mercapto-3-methylbutyroyl-(L)-leucyl-(L)-phenylalanine]"
3.91,0.151,,,"CC(C)[C@H](S)C(=O)N[C@@H](CCCCN)C(=O)N[C@@H](Cc1ccccc1)C(=O)O [Example 5, (S)-2-Mercapto-3-methylbutyroyl-(L)-lysyl-(L)-phenylalanine trifluoroacetic acid salt]"
,,0.465,0.0006,"CNC(=O)[C@H](Cc1ccccc1)NC(=O)[C@H](CCc1ccccc1)NC(=O)C(S)C(C)C (stereo partly drawn) [Example 7, (S)-2-Mercapto-3-methylbutyroyl-(L)-homo-phenylalanyl-(L)-phenylalanine N-methyl amide, reference compound]"
0.153,0.014,,,"CSCC[C@H](NC(=O)[C@@H](S)C(C)C)C(=O)N[C@@H](Cc1ccccc1)C(=O)O [Example 4, (S)-2-Mercapto-3-methylbutyroyl-(L)-methionyl-(L)-phenylalanine]"
